# Results: patent US6682739B1, “Methods of inhibiting osteoclastogenesis” (The Trustees of the University of Pennsylvania, priority 1999, dated 2004)
# Positions of bridges follow the written chain, without caps; N, C: chain ends. No end group written: not given here.
# B1: OPG: naturally occurring secreted protein with homology to members of the TNF receptor family; positive control in the TRAP assay (protein, UniProt O00300 22-401, looked up)
# Tumor necrosis factor …: ETFPPKYLHYDEETSHQLLCDKCPPGTYLKQHCTAKWKTVCAPCPDHYYTDSWHTSDECLYCSPVCKELQYVKQECNRTHNRVCECKEGRYLEIEFCLKHRSCPPGFGVVQAGTPERNTVCKRCPDGFFSNETSSKAPCRKHTNCSVFGLLLTQKGNATHDNICSGNSESTQKCGIDVTLCEEAFFRFAVPTKFTPNWLSVLVDNLPGTKVNAESVERIKRQHSSQEQTFQLLKLWKHQNKDQDIVKKIIQDIDLCENSVQRHIGHANLTFEQLRSLMESLPGKKVGAEDIEKTIKACKPSDQILKLLSLWRIKNGDQDTLKGLMHALKHSKTYHFPKTVTQSLKKTIRFLHSFTMYKLYQKLFLEMIGNQVQSVKISCL
# B2: WP9QY (peptide)
# peptide: YCWSQYLCY
# modifications: disulfide 2-8
# notes: Synthetic exocyclic peptide; also called WP9QY peptide; peptidomimetic (WP9QY)
# Assays:
# [1] = test system: osteoclast formation (osteoclastogenesis); conditions: co-culture induced by 1alpha,25-dihydroxyvitamin D3 and PGE2
# [2] = test system: TNF-α receptor; conditions: L929 lymphocytes; cited from earlier work
# [3] = test system: TRANCE-induced marrow cultures (RANK Ligand/RANK interaction); assay: TRANCE-induced marrow cultures; format: cell-based; conditions: reciprocal dose-dependence of WP9QY and TRANCE
# [4] = test system: osteoclastogenesis and associated bone resorption; conditions: administration in vivo; animal models that mimic osteopenic disorders; cited from earlier work
# [5] = molecular target: T1, TNF (UniProt P01375 77-233); assay: inhibition of the TNF/TNF receptor interaction; format not described in Example 1
# T1 construct: also called TNF-alpha; Tumor Necrosis Factor
# T1 sequence (P01375 77-233 limits assumed): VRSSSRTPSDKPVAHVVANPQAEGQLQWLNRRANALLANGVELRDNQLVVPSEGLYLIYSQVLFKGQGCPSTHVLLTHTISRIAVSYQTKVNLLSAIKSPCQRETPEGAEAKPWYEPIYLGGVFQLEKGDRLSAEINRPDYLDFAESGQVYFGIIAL
molecule,measurement,setting,value
"CC(C)C[C@@H]1NC(=O)[C@H](Cc2ccc(O)cc2)NC(=O)[C@H](CCC(N)=O)NC(=O)[C@H](CO)NC(=O)[C@H](Cc2c[nH]c3ccccc23)NC(=O)[C@@H](NC(=O)[C@@H](N)Cc2ccc(O)cc2)CSSC[C@@H](C(=O)N[C@@H](Cc2ccc(O)cc2)C(=O)O)NC1=O [WP9QY, YC WSQYL CY]","inhibition of osteoclastogenesis, in words",[1],dose- and time-dependently inhibited
same,IC50,"[1]; read-out: IC50 for inhibition of osteoclastogenesis, peptide tested at about 5 μM to about 500 μM",250 µM
same,antagonism of the effects of TNF-binding to the TNF-α receptor,[2],efficiently antagonized
same,effect on TRANCE-induced marrow cultures,[3],inhibits
B1,effect on osteoclastogenesis and associated bone resorption in vivo,[4],inhibits osteoclastogenesis and associated bone resorption
B2,IC50,[5],5 µM
